Source: publication PMC6742646, “Extensive disruption of protein interactions by genetic variants across the allele frequency spectrum in human populations” (Nature Communications, 2019)

Target: T1, AKR7A2 (Homo sapiens, UniProt O43488)
T1 construct: hORFeome ORF cloned EcoRI/XhoI in pET-6xHis-SUMO; E. coli Rosetta; cobalt purified, His-SUMO tag cleaved with Ulp1, FPLC; dimer in solution
Experiment: NADPH-dependent SSA reduction, absorbance plate assay
Type: biochemical
Details: 0.5 mM NADPH, sodium phosphate pH 8.0, 37 °C; SSA 0.50-3.5 mM; only kcat/KM printed

T1 sequence (O43488 whole entry): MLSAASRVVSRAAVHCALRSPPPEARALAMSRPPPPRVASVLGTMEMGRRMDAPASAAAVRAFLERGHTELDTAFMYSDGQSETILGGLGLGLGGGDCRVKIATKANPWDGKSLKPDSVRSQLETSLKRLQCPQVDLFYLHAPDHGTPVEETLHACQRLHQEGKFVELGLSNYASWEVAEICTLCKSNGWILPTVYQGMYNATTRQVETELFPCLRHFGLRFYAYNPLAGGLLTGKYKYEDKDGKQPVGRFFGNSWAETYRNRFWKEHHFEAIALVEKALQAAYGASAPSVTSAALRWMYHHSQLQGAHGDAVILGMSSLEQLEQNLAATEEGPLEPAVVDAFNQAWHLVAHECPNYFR

Compound: O=CCCC(=O)O [succinic semialdehyde]
- NADPH-dependent SSA reduction, absorbance plate assay: we purified recombinant WT and mutant AKR7A2 protein to test for changes in NADPH-dependent turnover
